Reference: patent US20250313579A1, “LIGAND COMPOUNDS COMPRISING A CHELATING GROUP AS A BRIDGING GROUP” (Technische Universität München, priority 2021, published 2025)

assay: Octanol-water distribution coefficient (LogDpH=7.4); format: physicochemical; conditions: n-octanol/PBS pH 7.4; radioactive ligand
Experimental: This distribution coefficient may be determined by measuring the equilibrium distribution, e.g. at room temperature (20° C.o) of a compound in accordance with the invention in a two-phase system containing equal amounts, such as 1.00 ml each, of n-octanol and PBS (pH=7.4), and calculating the logD7.4 value as log 10 (concentration in octanol/concentration in PBS). Instead of the (absolute) concentration of the compound in accordance with the invention in the octanol and the PBS, a parameter which is proportional to the concentration of the compound in each phase may also be used for the calculation, such as the activity of radiation if the compound comprises a radioactive moiety, e.g. a radioactive chelate.
The radioactive ligand of interest (0.7-1.0 MBq) is given to a mixture of n-octanol and PBS (1 ml, 1/1; v/V) in a 1.5 ml reaction tube and shaken vigorously for 3 min. The resulting mixture is centrifuged (9000 rpm, 5 min, RT), and 100 μl of the octanol and PBS phases isolated separately.
Quantification occurs by the determination of the activity of each isolated probe in a γ-counter. The LogDpH=7.4 value is determined by the following equation:
The determination of the final LogDpH=7.4 value is executed in octets. The mean value and standard deviation are determined after the removal of outlying values.

| Structure (SMILES) | LogDpH=7.4 |
| --- | --- |
| C[C@@H](O)[C@H](NC(=O)[C@@H]1CSSC[C@H](NC(=O)[C@@H](Cc2ccccc2)NC(=O)CN2CCN(CC(=O)O)CCN(CC(=O)NCCCC[C@@H](NC(=O)[C@@H](CNC(=O)C[N+](C)(C)Cc3ccc([Si](F)(C(C)(C)C)C(C)(C)C)cc3)NC(=O)[C@@H](CN)NC(=O)[C@@H](CCC(=O)O)NC(=O)[C@H](N)CCC(=O)O)C(=O)O)CCN(CC(=O)O)CC2)C(=O)N[C@@H](Cc2ccc(O)cc2)C(=O)N[C@H](Cc2c[nH]c3ccccc23)C(=O)N[C@@H](CCCCN)C(=O)N[C@@H]([C@@H](C)O)C(=O)N1)C(=O)O [Compound 05, H-D-Glu-D-Glu-D-Dap-D-Dap(N-SiFAlin-N,N-Mez-Gly)-D-Lys(trans-DOTA-TATE)-OH] | −1.96 ± 0.06 |
| C[C@@H](O)[C@H](NC(=O)[C@@H]1CSSC[C@H](NC(=O)[C@@H](Cc2ccccc2)NC(=O)CN2CCN(CC(=O)O)CCN(CC(=O)NCCCC[C@@H](NC(=O)[C@@H](CNC(=O)C[N+](C)(C)Cc3ccc([Si](F)(C(C)(C)C)C(C)(C)C)cc3)NC(=O)[C@@H](CCCCN)NC(=O)[C@@H](CCC(=O)O)NC(=O)[C@H](N)CCC(=O)O)C(=O)O)CCN(CC(=O)O)CC2)C(=O)N[C@@H](Cc2ccc(O)cc2)C(=O)N[C@H](Cc2c[nH]c3ccccc23)C(=O)N[C@@H](CCCCN)C(=O)N[C@@H]([C@@H](C)O)C(=O)N1)C(=O)O [Compound 06, H-D-Glu-D-Glu-D-Lys-D-Dap(N-SiFAlin-N,N-Mez-Gly)-D-Lys(trans-DOTA-TATE)-OH] | −2.36 ± 0.03 |
| C[C@@H](O)[C@H](NC(=O)[C@@H]1CSSC[C@H](NC(=O)[C@@H](Cc2ccccc2)NC(=O)CN2CCN(CC(=O)O)CCN(CC(=O)NCCCC[C@@H](NC(=O)C[N+](C)(C)Cc3ccc([Si](F)(C(C)(C)C)C(C)(C)C)cc3)C(=O)O)CCN(CC(=O)O)CC2)C(=O)N[C@@H](Cc2ccc(O)cc2)C(=O)N[C@H](Cc2c[nH]c3ccccc23)C(=O)N[C@@H](CCCCN)C(=O)N[C@@H]([C@@H](C)O)C(=O)N1)C(=O)O [[Ga]01, N-SiFAlin-N,N-Me2-Gly-D-Lys(trans-[^natGa] DOTA-TATE)-OH, metal not drawn] | −1.19 ± 0.07 |
| C[C@@H](O)[C@H](NC(=O)[C@@H]1CSSC[C@H](NC(=O)[C@@H](Cc2ccccc2)NC(=O)CN2CCN3CCN(CC(=O)NC[C@@H](NC(=O)C[N+](C)(C)Cc4ccc([Si](F)(C(C)(C)C)C(C)(C)C)cc4)C(=O)O)CCN(CC2)CC(=O)[O][Ga+][O]C(=O)C3)C(=O)N[C@@H](Cc2ccc(O)cc2)C(=O)N[C@H](Cc2c[nH]c3ccccc23)C(=O)N[C@@H](CCCCN)C(=O)N[C@@H]([C@@H](C)O)C(=O)N1)C(=O)O [[Ga]02, N-SiFAlin-N, N-Me2-Gly-D-Dap(trans-[^natGa] DOTA-TATE)-OH] | −1.03 ± 0.04 |
| C[C@@H](O)[C@H](NC(=O)[C@@H]1CSSC[C@H](NC(=O)[C@@H](Cc2ccccc2)NC(=O)CN2CCN(CC(=O)O)CCN(CC(=O)NCCCC[C@@H](NC(=O)[C@@H](CNC(=O)C[N+](C)(C)Cc3ccc([Si](F)(C(C)(C)C)C(C)(C)C)cc3)NC(=O)[C@@H](CCCNC(N)=O)NC(=O)[C@@H](CCCNC(N)=O)NC(=O)[C@H](N)CCCNC(N)=O)C(=O)O)CCN(CC(=O)O)CC2)C(=O)N[C@@H](Cc2ccc(O)cc2)C(=O)N[C@H](Cc2c[nH]c3ccccc23)C(=O)N[C@@H](CCCCN)C(=O)N[C@@H]([C@@H](C)O)C(=O)N1)C(=O)O [[Ga]03, H-D -Cit-D -Cit-D -Cit-D-Dap(N-SiFAlin-N,N-Me2-Gly)-D-Lys(trans-[na′Ga] DOTA-TATE)-OH] | −2.27 ± 0.04 |
| C[C@@H](O)[C@H](NC(=O)[C@@H]1CSSC[C@H](NC(=O)[C@@H](Cc2ccccc2)NC(=O)CN2CCN(CC(=O)O)CCN(CC(=O)NCCCC[C@@H](NC(=O)[C@@H](CNC(=O)C[N+](C)(C)Cc3ccc([Si](F)(C(C)(C)C)C(C)(C)C)cc3)NC(=O)[C@@H](CCCNC(N)=O)NC(=O)[C@@H](CCCNC(N)=O)NC(=O)[C@H](N)CCC(=O)O)C(=O)O)CCN(CC(=O)O)CC2)C(=O)N[C@@H](Cc2ccc(O)cc2)C(=O)N[C@H](Cc2c[nH]c3ccccc23)C(=O)N[C@@H](CCCCN)C(=O)N[C@@H]([C@@H](C)O)C(=O)N1)C(=O)O [[Ga]04, H-D-Glu-D -Cit-D -Cit-D-Dap(N-SiFAlin-N,N-Mez-Gly)-D-Lys(trans-[^natGa] DOTA-TATE)-OH, metal not drawn] | −2.30 ± 0.03 |
| C[C@@H](O)[C@H](NC(=O)[C@@H]1CSSC[C@H](NC(=O)[C@@H](Cc2ccccc2)NC(=O)CN2CCN3CCN(CC(=O)NCCCC[C@@H](NC(=O)[C@@H](CNC(=O)C[N+](C)(C)Cc4ccc([Si](F)(C(C)(C)C)C(C)(C)C)cc4)NC(=O)[C@@H](CN)NC(=O)[C@@H](CCC(=O)O)NC(=O)[C@H](N)CCC(=O)O)C(=O)O)CCN(CC2)CC(=O)[O][Ga+][O]C(=O)C3)C(=O)N[C@@H](Cc2ccc(O)cc2)C(=O)N[C@H](Cc2c[nH]c3ccccc23)C(=O)N[C@@H](CCCCN)C(=O)N[C@@H]([C@@H](C)O)C(=O)N1)C(=O)O [[Ga]05, H-D-Glu-D-Glu-D-Dap-D-Dap(N-SiFAlin-N,N-Me2-Gly)-D-Lys(trans-[^natGa] DOTA-TATE)-OH] | −2.12 ± 0.06 |
| C[C@@H](O)[C@H](NC(=O)[C@@H]1CSSC[C@H](NC(=O)[C@@H](Cc2ccccc2)NC(=O)CN2CCN3CCN(CC(=O)NCCCC[C@@H](NC(=O)[C@@H](CNC(=O)C[N+](C)(C)Cc4ccc([Si](F)(C(C)(C)C)C(C)(C)C)cc4)NC(=O)[C@@H](CCCCN)NC(=O)[C@@H](CCC(=O)O)NC(=O)[C@H](N)CCC(=O)O)C(=O)O)CCN(CC2)CC(=O)[O][Ga+][O]C(=O)C3)C(=O)N[C@@H](Cc2ccc(O)cc2)C(=O)N[C@H](Cc2c[nH]c3ccccc23)C(=O)N[C@@H](CCCCN)C(=O)N[C@@H]([C@@H](C)O)C(=O)N1)C(=O)O [[Ga]06, H-D-Glu-D-Glu-D-Lys-D-Dap(N-SiFAlin-N, N-Me2-Gly)-D-Lys(trans-[^natGa] DOTA-TATE)-OH] | −2.28 ± 0.04 |
| C[C@@H](O)[C@H](NC(=O)[C@@H]1CSSC[C@H](NC(=O)[C@@H](Cc2ccccc2)NC(=O)CN2CCN3CCN(CC(=O)NCCCC[C@@H](NC(=O)[C@@H](CNC(=O)C[N+](C)(C)Cc4ccc([Si](F)(C(C)(C)C)C(C)(C)C)cc4)NC(=O)[C@@H](CCC(=O)O)NC(=O)[C@@H](CCC(=O)O)NC(=O)[C@H](N)CCC(=O)O)C(=O)O)CCN(CC2)CC(=O)[O][Ga+][O]C(=O)C3)C(=O)N[C@@H](Cc2ccc(O)cc2)C(=O)N[C@H](Cc2c[nH]c3ccccc23)C(=O)N[C@@H](CCCCN)C(=O)N[C@@H]([C@@H](C)O)C(=O)N1)C(=O)O [[Ga]07, H-D-Glu-D-Glu-D-Glu-D-Dap(N-SiFAlin-N,N-Me2-Gly)-D-Lys(trans-[^natGa] DOTA-TATE)-OH] | −2.30 ± 0.04 |
| C[C@@H](O)[C@H](NC(=O)[C@@H]1CSSC[C@H](NC(=O)[C@@H](Cc2ccccc2)NC(=O)CN2CCN3CCN(CC(=O)NCCCC[C@@H](NC(=O)[C@@H](CCC(=O)O)NC(=O)[C@@H](CNC(=O)C[N+](C)(C)Cc4ccc([Si](F)(C(C)(C)C)C(C)(C)C)cc4)NC(=O)[C@@H](CCC(=O)O)NC(=O)[C@@H](CCC(=O)O)NC(=O)[C@H](N)CCC(=O)O)C(=O)O)CCN(CC2)CC(=O)[O][Ga+][O]C(=O)C3)C(=O)N[C@@H](Cc2ccc(O)cc2)C(=O)N[C@H](Cc2c[nH]c3ccccc23)C(=O)N[C@@H](CCCCN)C(=O)N[C@@H]([C@@H](C)O)C(=O)N1)C(=O)O [[Ga]08, H-D-Glu-D-Glu-D-Glu-D-Dap(N-SiFAlin-N,N-Me2-Gly)-D-Glu-D-Lys(trans-[^natGa] DOTA-TATE)-OH] | −2.07 ± 0.04 |
| C[C@@H](O)[C@H](NC(=O)[C@@H]1CSSC[C@H](NC(=O)[C@@H](Cc2ccccc2)NC(=O)CN2CCN(CC(=O)O)CCN(CC(=O)NCCCC[C@@H](NC(=O)[C@@H](CNC(=O)C[N+](C)(C)Cc3ccc([Si](F)(C(C)(C)C)C(C)(C)C)cc3)NC(=O)[C@@H](CCC(=O)O)NC(=O)[C@@H](CCC(=O)O)NC(=O)[C@@H](CCC(=O)O)NC(=O)[C@]3(O)C[C@@H](O)[C@@H](O)[C@H](O)C3)C(=O)O)CCN(CC(=O)O)CC2)C(=O)N[C@@H](Cc2ccc(O)cc2)C(=O)N[C@H](Cc2c[nH]c3ccccc23)C(=O)N[C@@H](CCCCN)C(=O)N[C@@H]([C@@H](C)O)C(=O)N1)C(=O)O [[Ga]09, D-(−)-quinic acid-D-Glu-D-Glu-D-Glu-D-Dap(N-SiFAlin-N,N-Me2-Gly)-D-Lys(trans-[^natGa] DOTA-TATE)-OH, metal not drawn] | −2.28 ± 0.04 |
